Patent publication US9902702B2, “Spirocycloheptanes as inhibitors of rock” (BRISTOL-MYERS SQUIBB COMPANY, priority 2014, dated 2018)
pIC50: −log10 of the molar value.

These molecules were tested against ROCK2 (Homo sapiens, UniProt O75116) (assay: ROCK assay: phosphorylation of FITC peptide substrate, LABCHIP 3000 mobility shift). Settings: 5 μM ATP, 1.5 μM peptide substrate; read-out: ROCK2 Activity (ROCK IC50 range).
Format: biochemical
Procedure: The effectiveness of compounds of the present invention as ROCK inhibitors can be determined in a 30 μL assay containing 20 mM HEPES, pH 7.5, 20 mM MgCl2, 0.015% Brij-35, 4 mM DTT, 5 μM ATP and 1.5 μM peptide substrate (FITC-AHA-AKRRRLSSLRA-OH). Compounds were dissolved in DMSO so that the final concentration of DMSO was <2%, and the reaction was initiated with Rho kinase variants. After incubation, the reaction was terminated by the addition of EDTA and the phosphorylated and non-phosphorylated peptides separated using a LABCHIP® 3000 Reader (Caliper Life Sciences). […] Compounds were tested in dose-response format, and the inhibition of kinase activity was calculated at each concentration of compound. The inhibition data were fit using a curve-fitting program to determine the IC50; i.e., the concentration of compound required to inhibit 50% of kinase activity.
Representative Examples were tested in the ROCK assay described above and found having ROCK inhibitory activity.

ROCK2, sequence (O75116 whole entry, species assumed): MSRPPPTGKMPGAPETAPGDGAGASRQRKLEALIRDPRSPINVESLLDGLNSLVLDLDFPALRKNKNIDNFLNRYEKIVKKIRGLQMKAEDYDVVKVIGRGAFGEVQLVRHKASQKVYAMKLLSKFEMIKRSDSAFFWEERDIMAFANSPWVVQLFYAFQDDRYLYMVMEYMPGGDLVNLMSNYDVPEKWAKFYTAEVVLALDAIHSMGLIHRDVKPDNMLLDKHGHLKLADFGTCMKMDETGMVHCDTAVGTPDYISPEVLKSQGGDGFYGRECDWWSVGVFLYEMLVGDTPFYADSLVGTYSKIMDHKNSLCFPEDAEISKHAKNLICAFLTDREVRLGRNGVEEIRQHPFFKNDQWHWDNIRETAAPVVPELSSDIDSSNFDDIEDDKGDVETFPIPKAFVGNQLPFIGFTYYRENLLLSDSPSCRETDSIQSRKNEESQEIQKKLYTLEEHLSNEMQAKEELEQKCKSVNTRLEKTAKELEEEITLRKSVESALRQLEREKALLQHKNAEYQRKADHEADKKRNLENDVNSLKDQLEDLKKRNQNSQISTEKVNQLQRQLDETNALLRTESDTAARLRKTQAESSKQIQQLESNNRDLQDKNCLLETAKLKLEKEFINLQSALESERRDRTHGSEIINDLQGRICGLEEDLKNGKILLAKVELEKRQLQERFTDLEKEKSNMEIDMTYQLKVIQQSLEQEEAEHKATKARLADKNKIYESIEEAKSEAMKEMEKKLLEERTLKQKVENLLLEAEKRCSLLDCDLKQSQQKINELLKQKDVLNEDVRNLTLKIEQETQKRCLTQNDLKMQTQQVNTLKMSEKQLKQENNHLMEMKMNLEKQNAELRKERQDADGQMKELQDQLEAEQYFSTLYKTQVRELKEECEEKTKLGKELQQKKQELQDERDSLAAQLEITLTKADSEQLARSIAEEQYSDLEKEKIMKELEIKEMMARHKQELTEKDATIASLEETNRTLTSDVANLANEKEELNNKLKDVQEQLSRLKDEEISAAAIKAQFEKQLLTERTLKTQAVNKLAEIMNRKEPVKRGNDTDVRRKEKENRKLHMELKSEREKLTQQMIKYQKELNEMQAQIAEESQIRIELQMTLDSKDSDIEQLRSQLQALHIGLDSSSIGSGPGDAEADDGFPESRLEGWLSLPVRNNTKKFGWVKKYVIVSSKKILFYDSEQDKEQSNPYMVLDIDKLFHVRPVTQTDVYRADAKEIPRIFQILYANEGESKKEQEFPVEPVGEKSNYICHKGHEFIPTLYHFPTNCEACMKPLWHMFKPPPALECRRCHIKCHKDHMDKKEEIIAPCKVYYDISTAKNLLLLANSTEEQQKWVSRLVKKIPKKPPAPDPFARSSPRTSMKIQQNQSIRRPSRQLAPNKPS

Cn1nc(C(=O)N[C@H]2CC3(C2)C[C@H](c2n[nH]c(=O)c4ccccc42)C3)c2ccccc21 (single isomer, unassigned) [Example 14] and Cn1nc(C(=O)NC2CC3(C2)CC(c2n[nH]c(=O)c4ccccc24)C3)c2ccccc21 (stereo not shown) [Example 5, 1-methyl-N-[6-(4-oxo-3,4-dihydrophthalazin-1-yl)spiro[3.3]heptan-2-yl]-1H-indazole-3-carboxamide] fall in the same range of pIC50: 8.30 to 8.70 for the first, 8.30 to 8.70 for the second.

O=C(N[C@H]1CC2(C1)C[C@H](c1n[nH]c(=O)c3ccccc31)C2)c1ccn(CC(F)(F)F)n1 (single isomer, unassigned) [Example 15] and O=C(NC1CC2(C1)CC(c1n[nH]c(=O)c3ccccc13)C2)c1ccn(CC(F)(F)F)n1 (stereo not shown) [Example 7, N-[6-(4-oxo-3,4-dihydrophthalazin-1-yl)spiro[3.3]heptan-2-yl]-1-(2,2,2-trifluoroethyl)-1H-pyrazole-3-carboxamide] fall in the same range of pIC50: 7.82 to 8.29 for the first, 7.82 to 8.29 for the second.

First: O=C(N[C@H]1CC2(C1)C[C@H](c1n[nH]c(=O)c3ccccc31)C2)c1ccn(CC(F)F)n1 (single isomer, unassigned) [Example 16]
Second: O=C(N[C@H]1CC2(C1)C[C@H](c1n[nH]c(=O)c3ccccc31)C2)c1ccn(CC(F)(F)F)n1 (single isomer, unassigned) [Example 18]
The pIC50 of the first is higher: 8.30 to 8.70 for the first, 5.68 to 7.00 for the second.

First: Cn1nc(C(=O)N[C@H]2CC3(C2)C[C@H](c2n[nH]c(=O)c4ccccc42)C3)c2ccccc21 (single isomer, unassigned) [Example 17]
Second: CC(C)(O)Cn1nc(C(=O)NC2CC3(C2)CC(c2n[nH]c(=O)c4ccccc24)C3)c2ccccc21 (single isomer, unassigned) [Example 21]
The pIC50 of the first is lower: 5.68 to 7.00 for the first, 8.30 to 8.70 for the second.

O=C(NC1CC2(C1)CC(c1n[nH]c(=O)c3ccccc13)C2)C1Cc2ccccc2C1 (stereo not shown) [Example 1, N-[6-(4-oxo-3,4-dihydrophthalazin-1-yl)spiro[3.3]heptan-2-yl]-2,3-dihydro-1H-indene-2-carboxamide] and O=C(Cc1ccc2ccccc2c1)NC1CC2(C1)CC(c1n[nH]c(=O)c3ccccc13)C2 (stereo not shown) [Example 4, 2-(naphthalen-2-yl)-N-[6-(4-oxo-3,4-dihydrophthalazin-1-yl)spiro[3.3]heptan-2-yl]acetamide] fall in the same range of pIC50: 5.68 to 7.00 for the first, 5.68 to 7.00 for the second.

First: CN(C)c1ccc(C(=O)NC2CC3(C2)CC(c2n[nH]c(=O)c4ccccc24)C3)cc1 (stereo not shown) [Example 2, 4-(dimethylamino)-N-[6-(4-oxo-3,4-dihydrophthalazin-1-yl)spiro[3.3]heptan-2-yl]benzamide]
Second: CC(C)(C)n1cc(C(=O)NC2CC3(C2)CC(c2n[nH]c(=O)c4ccccc24)C3)cn1 (stereo not shown) [Example 9, 1-tert-butyl-N-[6-(4-oxo-3,4-dihydrophthalazin-1-yl)spiro[3.3]heptan-2-yl]-1H-pyrazole-4-carboxamide]
The pIC50 of the first is lower: 5.68 to 7.00 for the first, 7.00 to 7.82 for the second.

O=C(Cc1cccc2ccccc12)NC1CC2(C1)CC(c1n[nH]c(=O)c3ccccc13)C2 (stereo not shown) [Example 3, 2-(naphthalen-1-yl)-N-[6-(4-oxo-3,4-dihydrophthalazin-1-yl)spiro[3.3]heptan-2-yl]acetamide] and O=C(CCc1ccccc1)NC1CC2(C1)CC(c1n[nH]c(=O)c3ccccc13)C2 (stereo not shown) [Example 6, N-[6-(4-oxo-3,4-dihydrophthalazin-1-yl)spiro[3.3]heptan-2-yl]-3-phenylpropanamide] fall in the same range of pIC50: 5.68 to 7.00 for the first, 5.68 to 7.00 for the second.

Compared with Cc1nn(-c2ccccc2)cc1C(=O)NC1CC2(C1)CC(c1n[nH]c(=O)c3ccccc13)C2 (stereo not shown) [Example 8, 3-methyl-N-[6-(4-oxo-3,4-dihydrophthalazin-1-yl)spiro[3.3]heptan-2-yl]-1-phenyl-1H-pyrazole-4-carboxamide], Cc1c(C(=O)NC2CC3(C2)CC(c2n[nH]c(=O)c4ccccc24)C3)cnn1-c1ccccc1 (stereo not shown) [Example 13, 5-methyl-N-[6-(4-oxo-3,4-dihydrophthalazin-1-yl)spiro[3.3]heptan-2-yl]-1-phenyl-1H-pyrazole-4-carboxamide] is higher in pIC50: 7.00 to 7.82 for the first, 8.30 to 8.70 for the second. The second is the more potent here.

Compared with O=C(NC1CC2(C1)CC(c1n[nH]c(=O)c3ccccc13)C2)c1ccn(-c2ccccc2)n1 (stereo not shown) [Example 10, N-[6-(4-oxo-3,4-dihydrophthalazin-1-yl)spiro[3.3]heptan-2-yl]-1-phenyl-1H-pyrazole-3-carboxamide], O=C(NC1CC2(C1)CC(c1n[nH]c(=O)c3ccccc13)C2)c1cnn(-c2ccccc2)c1 (stereo not shown) [Example 12, N-[6-(4-oxo-3,4-dihydrophthalazin-1-yl)spiro[3.3]heptan-2-yl]-1-phenyl-1H-pyrazole-4-carboxamide] is higher in pIC50: 5.68 to 7.00 for the first, 7.00 to 7.82 for the second.

First: CC(C)(O)Cn1nc(C(=O)NC2CC3(C2)CC(c2n[nH]c(=O)c4ccccc24)C3)c2ccccc21 (stereo not shown) [Example 11, 1-(2-hydroxy-2-methylpropyl)-N-[6-(4-oxo-3,4-dihydrophthalazin-1-yl)spiro[3.3]heptan-2-yl]-1H-indazole-3-carboxamide]
Second: CC(C)(O)Cn1nc(C(=O)NC2CC3(C2)CC(c2n[nH]c(=O)c4ccccc24)C3)c2ccc(F)cc21 [Example 31, 6-fluoro-1-(2-hydroxy-2-methylpropyl)-N-[(aR)-6-(4-oxo-3,4-dihydrophthalazin-1-yl)spiro[3.3]heptan-2-yl]-1H-indazole-3-carboxamide]
The pIC50 of the first is lower: 7.00 to 7.82 for the first, 8.30 to 8.70 for the second. The second is the more potent here.

First: O=C(N[C@H]1CC2(C1)C[C@H](c1n[nH]c(=O)c3ccccc31)C2)c1ccn(CC(F)F)n1 (stereo partly drawn) [Example 19, 1-(2,2-Difluoroethyl)-N-[(aR)-6-(4-oxo-3,4-dihydrophthalazin-1-yl)spiro[3.3]heptan-2-yl]-1H-pyrazole-3-carboxamide]
Second: O=C(NC1CC2(C1)CC(c1n[nH]c(=O)c3ccccc13)C2)c1ccn(CCC(F)(F)F)n1 [Example 22, N-[(aR)-6-(4-oxo-3,4-dihydrophthalazin-1-yl)spiro[3.3]heptan-2-yl]-1-(3,3,3-trifluoropropyl)-1H-pyrazole-3-carboxamide]
The pIC50 of the first is lower: 5.68 to 7.00 for the first, 7.82 to 8.29 for the second. The second is the more potent here.

First: Cc1c(C(=O)NC2CC3(C2)CC(c2n[nH]c(=O)c4ccccc24)C3)cnn1-c1ccccc1 [Example 20, 5-methyl-N-[(aR)-6-(4-oxo-3,4-dihydrophthalazin-1-yl)spiro[3.3]heptan-2-yl]-1-phenyl-1H-pyrazole-4-carboxamide]
Second: Cc1nn(CC(F)F)cc1C(=O)NC1CC2(C1)CC(c1n[nH]c(=O)c3ccccc13)C2 [Example 32, 1-(2,2-difluoroethyl)-3-methyl-N-[(aR)-6-(4-oxo-3,4-dihydrophthalazin-1-yl)spiro[3.3]heptan-2-yl]-1H-pyrazole-4-carboxamide]
The pIC50 of the first is higher: 8.70 to 9.70 for the first, 8.30 to 8.70 for the second.

O=C(NC1CC2(C1)CC(c1n[nH]c(=O)c3ccccc13)C2)c1ccn(CC2CC2)n1 [Example 23, 1-(cyclopropylmethyl)-N-[(aR)-6-(4-oxo-3,4-dihydrophthalazin-1-yl)spiro[3.3]heptan-2-yl]-1H-pyrazole-3-carboxamide] and O=C(NC1CC2(C1)CC(c1n[nH]c(=O)c3ccccc13)C2)c1ccn(C2CC2)n1 [Example 29, 1-cyclopropyl-N-[(aR)-6-(4-oxo-3,4-dihydrophthalazin-1-yl)spiro[3.3]heptan-2-yl]-1H-pyrazole-3-carboxamide] fall in the same range of pIC50: 7.82 to 8.29 for the first, 7.82 to 8.29 for the second.

Cn1nc(C2CC2)cc1C(=O)NC1CC2(C1)CC(c1n[nH]c(=O)c3ccccc13)C2 [Example 24, 3-cyclopropyl-1-methyl-N-[(aR)-6-(4-oxo-3,4-dihydrophthalazin-1-yl)spiro[3.3]heptan-2-yl]-1H-pyrazole-5-carboxamide] and Cn1nc(C(=O)NC2CC3(C2)CC(c2n[nH]c(=O)c4ccccc24)C3)cc1C1CC1 [Example 26, 5-cyclopropyl-1-methyl-N-[(aR)-6-(4-oxo-3,4-dihydrophthalazin-1-yl)spiro[3.3]heptan-2-yl]-1H-pyrazole-3-carboxamide] fall in the same range of pIC50: 8.30 to 8.70 for the first, 8.30 to 8.70 for the second.

Compared with Cn1nc(C(F)(F)F)cc1C(=O)NC1CC2(C1)CC(c1n[nH]c(=O)c3ccccc13)C2 [Example 25, 1-methyl-N-[(aR)-6-(4-oxo-3,4-dihydrophthalazin-1-yl)spiro[3.3]heptan-2-yl]-3-(trifluoromethyl)-1H-pyrazole-5-carboxamide], Cn1nc(C(=O)NC2CC3(C2)CC(c2n[nH]c(=O)c4ccccc24)C3)cc1OC(F)F [Example 28, 5-(difluoromethoxy)-1-methyl-N-[(aR)-6-(4-oxo-3,4-dihydrophthalazin-1-yl)spiro[3.3]heptan-2-yl]-1H-pyrazole-3-carboxamide] is lower in pIC50: 7.82 to 8.29 for the first, 7.00 to 7.82 for the second. The first is the more potent here.

First: O=C(NC1CC2(C1)CC(c1n[nH]c(=O)c3ccccc13)C2)c1cnn(C2CC2)c1 [Example 27, 1-cyclopropyl-N-[(aR)-6-(4-oxo-3,4-dihydrophthalazin-1-yl)spiro[3.3]heptan-2-yl]-1H-pyrazole-4-carboxamide]
Second: CC(C)(O)Cn1ccc(C(=O)NC2CC3(C2)CC(c2n[nH]c(=O)c4ccccc24)C3)n1 [Example 30, 1-(2-hydroxy-2-methylpropyl)-N-[(aR)-6-(4-oxo-3,4-dihydrophthalazin-1-yl)spiro[3.3]heptan-2-yl]-1H-pyrazole-3-carboxamide]
The pIC50 of the first is higher: 7.82 to 8.29 for the first, 7.00 to 7.82 for the second.

First: Cc1nc(N2CCCCC2)sc1C(=O)N[C@H]1CC2(C1)C[C@H](c1n[nH]c(=O)c3ccccc31)C2 (stereo partly drawn) [Example 33, 4-Methyl-N-((aR)-6-(4-oxo-3,4-dihydrophthalazin-1-yl)spiro[3.3]heptan-2-yl)-2-(piperidin-1-yl)thiazole-5-carboxamide]
Second: Cc1nc(N2CCOCC2)sc1C(=O)NC1CC2(C1)CC(c1n[nH]c(=O)c3ccccc13)C2 [Example 34, 4-methyl-2-(morpholin-4-yl)-N-[(aR)-6-(4-oxo-3,4-dihydrophthalazin-1-yl)spiro[3.3]heptan-2-yl]-1,3-thiazole-5-carboxamide]
The pIC50 of the first is higher: 8.70 to 9.70 for the first, 7.00 to 7.82 for the second. The first is the more potent here.
